Experimental findings from the NIST ThermoML archive (doi:10.1021/acs.jced.6b00733) are described below.

The conditions of data set [1]: Liquid, Ebulliometric method (Recirculating still).
The nature of data set [2]: refractive index (Na D-line) (dimensionless). The note with it: 298.15 K; 101.3 kPa; Liquid; Standard Abbe refractometry.

Numbers after ± are expanded uncertainties.

For `CC(C)CCO` [3-methylbutan-1-ol], the vapor or sublimation pressure (commonly the equilibrium pressure above the liquid or solid) in data set [1] (404.05 K) came to 101.33 ± 1 kPa. For the same compound, the refractive index (commonly the speed of light in vacuum divided by its phase velocity in the sample) in data set [2] amounted to 1.4042 ± 0.0004. As for `CC(=O)OCCC(C)C` [3-methylbutyl ethanoate], the “vapor or sublimation pressure” value in data set [1] (415.19 K) was found to be 101.33 ± 1 kPa. Further, the refractive index in data set [2] was 1.3977 ± 0.0004. For the compound `c1ccccc1` [benzene], the “vapor or sublimation pressure” value in data set [1] (353.27 K) amounted to 101.33 ± 1 kPa.

Turning to `C[S+](C)[O-]` [dimethyl sulfoxide], the “vapor or sublimation pressure” value in data set [1] (463.93 K) came to 101.33 ± 1 kPa. In addition, in data set [2], the refractive index worked out at 1.4779 ± 0.0004. Consider `Cc1ccccc1` [toluene], for which the “vapor or sublimation pressure” value in data set [1] (383.82 K) was found to be 101.33 ± 1 kPa.
